Laboratory results taken from patent US5675031A, “4-hydroxy-2-cyclopentenone derivatives and anticancer agent and bone formation accelerator containing the same” (Teijin Limited, priority 1992, dated 1997).
Values after ≈ are worked out from the molar mass of the structure shown.

Assays:
L1210 tumor cells = experiment: anticancer activity (growth of L1210 tumor cells, trypan blue staining of surviving cells); type: cell-based; details: Mus musculus, 48 h, 2.5×10^4 cells/ml, grown for 2 days
Procedure: Measurement of anticancer activity
Tumor cells were grown in an RPMI 1640 medium containing of 10% fetal calf serum.
The compound was dissolved in 99.5% ethanol, adjusted before use so that the final concentration of ethanol was 0.1% or less, and added to the medium.
The control was 0.1% ethanol, and L1210 tumor cells were inoculated in the medium in a concentration of 2.5×10^4 cells/ml and grown for 2 days. The number of surviving cells were measured by trypan blue staining.

[1] = system: Human osteoblasts (KK-3, 18PDL); experiment: bone formation activity (Ca, P and alkaline phosphatase in human osteoblasts); type: cell-based; details: 14 days
Procedure: Measurement of bone formation activity
Human osteoblasts (KK-3, 18PDL) were cultured in an α-MEM containing 10% fetal calf serum. After the growth become stationary, the compound was added in a given concentration in the presence of 2 mM α-glycerophosphate and treated for 14 days. The cell phase was washed with physiological saline, and the alkaline phosphatase activity (ALP) was measured through the absorption of OD415. Then, calcium (Ca) and phosphorus (P) were extracted with a 2N hydrochloric acid and quantitatively determined.

[2] = Table 9, 1.0 × 10^-6 M, control 1.15 ± 0.19
[3] = Table 9, 1.0 × 10^-6 M, control 2.17 ± 2.56
[4] = Table 9, 1.0 × 10^-6 M, control 3.83 ± 1.72
[5] = Table 9, 3.3 × 10^-6, control 1.15 ± 0.19
[6] = Table 9, 3.3 × 10^-6, control 2.17 ± 2.56
[7] = Table 6, 1.0 × 10^-6, control 0.550 ± 0.040
[8] = Table 6, 1.0 × 10^-6, control 11.00 ± 1.73
[9] = Table 6, 2.5 × 10^-7 M, control 0.550 ± 0.040
[10] = Table 6, 2.5 × 10^-7 M, control 11.00 ± 1.73
[11] = Table 6, 2.5 × 10^-7 M, control 20.00 ± 1.73

In the case of `CN(C)c1ccc(/C=C2/C(=O)C(Cl)=CC2(O)CCCCOc2ccccc2)cc1` (stereo not shown) [drawing 212], the IC50 (L1210 tumor cells) is reported as 0.062 µg/mL (≈ 0.151 µM).
For `COC(=O)c1ccc(/C=C2/C(=O)C=CC2(O)CCCCOc2ccccc2)cc1` (stereo not shown) [drawing 207], the IC50 (L1210 tumor cells) was 0.014 µg/mL (≈ 0.0357 µM).
`O=C1C=CC(O)(CCCCOc2ccccc2)/C1=C\c1ccncc1` (stereo not shown) gave an IC50 (L1210 tumor cells) of 0.021 µg/mL (≈ 0.0626 µM).
Compound `COC(=O)c1ccc(/C=C2/C(=O)C=C[C@@]2(O)CCCCOc2ccccc2)cc1` [drawing 220] has an ALP [1, 2] of 0.04 ± 0.01 OD415 /dish, a Ca [1, 3] of 312.17 ± 12.30 μg/dish and a P [1, 4] of 170.33 ± 11.60 μg/dish. For the same compound, the ALP [1, 5] was 0.03 OD415 /dish and the Ca [1, 6] was 328.00 ± 15.90 μg/dish.
Work on `COC(=O)c1ccc(/C=C2/C(=O)C=C[C@]2(O)CCCCOc2ccccc2)cc1` [drawing 219] yielded an ALP [1, 2] of 0.74 ± 0.06 OD415 /dish, a Ca [1, 3] of 18.00 ± 8.00 μg/dish and a P [1, 4] of 13.00 ± 4.69 μg/dish. It also gave an ALP [1, 5] of 1.79 OD415 /dish and a Ca [1, 6] of 318.50 ± 12.50 μg/dish.
For `COC(=O)c1ccc(/C=C2/C(=O)C=C(C)C2(O)CCCCOc2ccccc2)cc1` (stereo not shown) [drawing 208], the IC50 (L1210 tumor cells) was 10.8 µg/mL (≈ 26.5 µM).
In the case of `COC(=O)c1ccc(/C=C2/C(=O)C(Cl)=CC2(O)CCCCOc2ccccc2)cc1` (stereo not shown) [drawing 209], the IC50 (L1210 tumor cells) is reported as 0.004 µg/mL (≈ 0.00937 µM).
`COC(=O)c1ccc(/C=C2/C(=O)C(Cl)=CC2(O)CCCCOc2ccccc2)cc1` (stereo not shown) [drawing 216] showed an ALP [1, 7] of 0.0 OD415 /dish, a Ca [1, 8] of 124.50 ± 2.12 μg/dish and an ALP [1, 9] of 0.484 ± 0.078 OD415 /dish. It also gave a Ca [1, 10] of 37.00 ± 1.00 μg/dish and a P [1, 11] of 36.00 ± 1.00 μg/dish.
With `COC(=O)c1ccc(/C=C2/C(=O)C=C[C@]2(O)CCCCOc2ccccc2)cc1` [drawing 214] the IC50 (L1210 tumor cells) was 0.026 µg/mL (≈ 0.0663 µM).
With `CN(C)c1ccc(/C=C2/C(=O)C(Cl)=CC2(O)CCCCOc2ccccc2)cc1` (stereo not shown) [drawing 217] the P ([1]; Table 7, 10^-6 M, control 0.17 ± 0.29) was 1.72 ± 0.05 μg/dish, the Ca ([1]; Table 7, 10^-6 M, control 0.33 ± 0.29) was 23.50 ± 3.77 μg/dish and the ALP ([1]; Table 7, 10^-6 M, control 0.826 ± 0.006) was 0.503 OD415 /dish. It also gave a P ([1]; Table 7, 10^-7 M, control 0.17 ± 0.29) of 0.33 ± 0.29 μg/dish, a Ca ([1]; Table 7, 10^-7 M, control 0.33 ± 0.29) of 0.0 ± 0 μg/dish and an ALP ([1]; Table 7, 10^-7 M, control 0.826 ± 0.006) of 0.796 ± 0.047 OD415 /dish.
In the case of `COC(=O)c1ccc(/C=C2/C(=O)C=C(C)C2(O)CCCCOc2ccccc2)cc1` (stereo not shown) [drawing 218], the Ca ([1]; Table 8, 10^-4 M, control 0.33 ± 0.58) is reported as 8.133 ± 3.06 μg/dish, the ALP ([1]; Table 8, 10^-4 M, control 1.684 ± 0.068) is reported as 0.697 OD415 /dish and the P ([1]; Table 8, 10^-4 M, control 7.67 ± 0.58) is reported as 50.33 ± 1.53 μg/dish. The Ca ([1]; Table 8, 10^-5 M, control 0.33 ± 0.58) was 1.00 ± 0.0 μg/dish, the ALP ([1]; Table 8, 10^-5 M, control 1.684 ± 0.068) was 1.538 ± 0.028 OD415 /dish and the P ([1]; Table 8, 10^-5 M, control 7.67 ± 0.58) was 8.33 ± 1.53 μg/dish.
Compound `CN(C)c1ccc(C=C2C(=O)C=CC2(O)CCCCOc2ccccc2)cc1` (stereo not shown) has an IC50 (L1210 tumor cells) of 0.378 µg/mL (≈ 1 µM).
In the case of `COC(=O)c1ccc(/C=C2/C(=O)C=C[C@@]2(O)CCCCOc2ccccc2)cc1` [drawing 213], the IC50 (L1210 tumor cells) is reported as 0.01 µg/mL (≈ 0.0255 µM).
`COC(=O)c1ccc(/C=C2/C(=O)C=CC2(O)CCCCOc2ccccc2)cc1` (stereo not shown) [drawing 215] showed an ALP [1, 7] of 0.488 OD415 /dish, a Ca [1, 8] of 47.00 ± 1.00 μg/dish and an ALP [1, 9] of 0.572 ± 0.028 OD415 /dish. For the same compound, the Ca [1, 10] was 22.67 ± 3.51 μg/dish and the P [1, 11] was 28.33 ± 2.52 μg/dish.
